Experimental data reported in paper PMC6662706, “Short amylin receptor antagonist peptides improve memory deficits in Alzheimer’s disease mouse model” (Scientific Reports, 2019).
Positions of bridges follow the written chain, without caps; N, C: chain ends. No end group written: not given here.

Experiments:
[1] = Brain uptake of R5 compared with davalintide, wild-type and het CTR mice; format: in vivo, mouse; settings: Cy5.5 labeled, ip 0.1 mmole, intact brain imaged 2 h post-injection, wild-type and het CTR mice, n=5 per group
Experimental: For peptide R5 brain uptake in comparison to Davlintide, wild-type littermate (C57BL/6 background) mice and heterozygous CTR knockdown mice (50% CTR expression level compared to wild type control mice and presumably with 50% AMY receptor expression level) was used (n=5 in each group). Mouse brains were extracted after 2h from a single injection and fluorescence in brains was quantified as mentioned above.
Supplementary Figure S3: The comparison of brain permeability for R5 and Davalintide.

[2] = set-up: method as in PMID 29067318; settings: mouse, not told; cited from earlier work
[3] = biological target: T1, AMY3 receptor (CTR+RAMP3) expressed on HEK293 cells (HEK-AMY3) (Homo sapiens, UniProt O60896+P30988); assay: Peptide array-cell binding assay (SPOT cellulose membrane, GFP-labeled cells); settings: library R1-R14 on cellulose membrane, GFP-labeled HEK-AMY3 vs HEK-WT and HEK-CTR cells
T1 construct: expressed in transfected cells
T1 sequence (P30988 25-474): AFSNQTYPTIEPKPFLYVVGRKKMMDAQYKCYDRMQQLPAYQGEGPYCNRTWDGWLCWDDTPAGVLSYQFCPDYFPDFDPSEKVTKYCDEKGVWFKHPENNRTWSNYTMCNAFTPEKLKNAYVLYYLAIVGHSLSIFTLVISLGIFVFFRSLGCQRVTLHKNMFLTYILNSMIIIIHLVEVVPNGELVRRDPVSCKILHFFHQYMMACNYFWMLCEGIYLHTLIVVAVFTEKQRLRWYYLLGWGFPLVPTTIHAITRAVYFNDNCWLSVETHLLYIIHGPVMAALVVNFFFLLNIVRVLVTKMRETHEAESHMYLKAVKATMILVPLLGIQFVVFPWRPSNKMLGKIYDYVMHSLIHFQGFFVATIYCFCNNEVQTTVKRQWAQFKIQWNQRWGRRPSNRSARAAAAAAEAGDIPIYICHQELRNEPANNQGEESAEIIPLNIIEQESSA
T1 sequence (O60896 24-148): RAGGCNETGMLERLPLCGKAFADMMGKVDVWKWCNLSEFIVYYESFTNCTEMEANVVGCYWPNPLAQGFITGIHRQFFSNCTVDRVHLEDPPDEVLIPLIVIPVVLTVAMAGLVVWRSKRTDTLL
Excerpt: In order to identify shorter peptides with selective recognition and binding to amylin receptor, enhanced metabolic stability and brain penetrability than the linear full length peptide, we designed a peptide library comprised of 14 different sequences, namely, R1-R14. Fragments (R1−R13) are 12 amino acids in length and peptide R14 is 14 amino acids. The initial fragment comprised the first 12 amino acids from the N-terminus of AC253 sequence, and subsequent fragments derived from shifting one amino acid at a time, as depicted in Supplemental Fig. S1A. […] The relative binding affinities of peptide fragments were determined through measuring and plotting the net fluorescence intensity of the bound GFP labeled live cells on each spot as measured with a fluorescence Kodak imager (Supplemental Fig. S1C). […]
To screen peptide library for amylin receptor binding affinity, transfected GFP-positive Human Embryonic Kidney 293 cells that express AMY3 receptor (CTR+RAMP3) as previously reported was used ^8. […] The membrane was scanned at 465 nm excitation and 535 nm emission and the net fluorescence intensity of each peptide spot was quantified using Kodak IS2000MM Image station (GE Healthcare Systems/ART Inc). […]

[4] = test system: hippocampal LTP (CA1); assay: Hippocampal long-term potentiation (LTP) in slices from wild type mice; set-up: species or system mouse; settings: wild type mouse slices, 250 nM
Experimental: We examined whether the peptide fragments were capable of influencing Aβ- or hAmylin-induced reduction of hippocampal LTP in mice. Exposure of hippocampal slices from wild-type mice to hAmylin (50 nM) or Aβ (50 nM) depressed LTP induced by a weak tetanization protocol at the CA1 region as previously reported[20],[30]. To determine whether peptides affected hAmylin or Aβ- induced depression of LTP, we applied 250 nM R5 or R14 continuously for 5 min prior to exposure of the hippocampal slices to 50 nM hAmylin or Aβ and the subsequent LTP induction. […] We therefore sought to determine whether peptide fragments were also capable of improving LTP levels in the same TgCRND8 AD mouse model. […] Importantly, doses of the short peptide fragments used in these experiments were equimolar to those used for AC253 and pramlintide in our previous studies[20],[30].
For electrophysiology experiment, hippocampal slices (400-μm thick) were prepared using a vibratome from wild type and TgCRND8 mice (8 month of age, male or female). For long-term potentiation (LTP) measurement, the stimulus strength was set to elicit 40–50% of the maximum fEPSP (field excitatory postsynaptic potential) amplitude and test pulses were delivered once every 30s. LTP was induced by 3-theta-burst stimulation protocol (each burst consisted of four pulses at 100 Hz with a 200-ms interburst interval). All drugs and chemicals were applied directly to the slice via bath perfusion.
Brains were quickly removed from mice following decapitation, placed in a cold artificial cerebral spinal fluid (aCSF) on a vibratome chamber, and transverse sections cut through the hippocampus. The aCSF contained (in millimolar 124 NaCl, 3 KCl, 2.4 CaCl2, 2 MgCl2, 1.25 NaH2PO4, 26 NaHCO3, and 10 D-glucose and was equilibrated with 95 % O2 and 5 % CO2. Hippocampal slices (400-μm thick) were maintained in aCSF-filled holding chamber at room temperature for at least 1 h and individually transferred to the submerged glass bottom recording chamber, which was constantly perfused with aCSF (2 ml/min) at 30 °C. Field excitatory postsynaptic potential (fEPSP) was recorded with a metallic (Pt/Ir) electrode (FHC, Bowdoin, ME) from the stratum radiatum layer of Cornu ammonis 1 region of the hippocampus (CA1) area, and the Schaffer collateral afferents were stimulated with 100-μs test pulses via a bipolar cluster electrode (FHC). For long-term potentiation (LTP) experiments, the stimulus strength was set to elicit 40–50 % of the maximum fEPSP amplitude and test pulses were delivered to Schaffer collaterals once every 30 s. […] Before 3-TBS or drug application, the responses were monitored for at least 10 min to ensure a stable baseline of fEPSP. […]

[5] = In vitro proteolytic stability in human serum; format: in vitro ADME; settings: 37°C, intact peptide at different time points estimated by RP-HPLC
Experimental: Subsequently, we investigated the proteolytic stability of R5, and R14 compared to AC253. […] By assessing the main degradation fragments for both peptides using MALDI-TOF, we found both peptides to be cleaved at the basic arginine amino acids.
Supplementary Figure S2: The comparison of bio-distribution for the fragments and their parent peptide. (A) Ex vivo fluorescence showing bio-distribution images for Cy5.5-R5, R14, AC253 in different organs at after a 2 h of a single ip injection of the peptides (0.1 mmol in 200µl saline). (B) Quantification of peptides fluorescence in each organ (n=3). (C) In vitro stability of R5, R14, and AC253 peptides in human serum compared with AC253 at 37°C. The amount of intact peptide in human serum at different time points was estimated using RP-HPLC.

[6] = Ex vivo NIR fluorescence brain imaging after ip injection (brain penetration); format: in vivo, mouse; settings: wild-type mice, 0, 0.6, 2, 10, 20 mg/kg single ip dose, 2 h, n = 3 per dose
Excerpt: Blood brain barrier (BBB) penetration can limit the potential of long sequence peptides as therapeutic agents in central nervous system (CNS). Previously, we have reported that a cyclized form of AC253 peptide and to a lesser degree its linear form can both penetrate the BBB at therapeutically relevant levels, and are localized to the hippocampus and cortex, regions relevant to memory and learning processes. Therefore, we examined the ability of Cy5.5 labeled peptide fragments (R5, and R14) to penetrate BBB in wild-type mice using NIR fluorescence ex vivo brain imaging. Brain fluorescence resulting from either R5 or R14 was assessed against full length AC253 2 h after a single intraperitoneal (ip) injection of peptides. […] Fluorescence signals were distributed throughout the cortex, but particularly strong within the hippocampal regions, where a very high density of amylin receptor expression has been reported. […]
In vivo brain penetration and pharmacokinetics of the peptides were determined in 6-month-old male or female wild-type (C57BL/6 background) and heterozygous CTR mice (het-CTR). […]
For ex vivo imaging experiments and peptide brain uptake, we used age matched 6-month-old wild-type littermate (C57BL/6 background) mice. […] Region of interest was drawn around the brain region and analyzed using the Kodak ID 3.6 software and the mean fluorescence intensity was recorded. […]

davalintide [reference compound]
brain permeability, R5 versus davalintide [1]: lower brain permeability

pramlintide: synthetic analog of amylin (KCNTATCATQRLANFLVHSSNNFGPILPPTNVGSNTY-NH2; disulfide 2-7; chains of the INN, looked up)
brain permeability after systemic administration compared with cAC253 or R5 [2]: lower brain permeability

LQTYPRTNTGSN [R11]
relative binding to HEK-AMY3 cells in library screening [3]: minimal binding | effect of peptide alone on hippocampal LTP [4]: did not impair LTP

LGRLSQELHRLQTY-NH2 [R14]
half-life [5]: 1.5 h | accumulation in the brain at increasing dose [6]: dose-dependent
